Assays:
[1] = Oral pharmacokinetic study in rats (released hydromorphone in plasma); conditions: rat; for AUC of hydromorphone released from the conjugate / Cmax of hydromorphone released from the conjugate / Tmax of hydromorphone released from the conjugate: oral solution, dose equimolar to 2.0 mg/kg hydromorphone, plasma
[2] = Intranasal pharmacokinetic study in rats; conditions: rat, equimolar to 2.0 mg/kg hydromorphone
Method: The intranasal studies were performed at doses equimolar to 2.0 mg/kg of hydromorphone.

[3] = Tamper resistance study: extraction methods, hydromorphone release by HPLC; conditions: for amount of hydromorphone released from 3,6-di-aspirin-HM: %-AUC by HPLC
Text: Certain prodrug conjugates of the present technology were exposed to various commonly applied “extraction methods” to test for hydrolysis and/or decomposition of the prodrug.

[4] = Intravenous pharmacokinetic study in rats; conditions: rat, 0.20 mg/kg
[5] = system: GI transit; test: Validated rat gastrointestinal (GI) motility study; conditions: oral, equimolar dose, result in words
[6] = oral, equimolar to 2.0 mg/kg hydromorphone, result in words

In the case of CN1CCC23c4c5ccc(OC(=O)c6ccc(O)cc6)c4OC2C(=O)CCC3C1C5 (stereo not drawn) [3-p-Salicylic-HM, 3-p-salicylic-hydromorphone], the “AUC of hydromorphone released from the conjugate” value (shortened to “AUC of hydromorphone released”) [1] is reported as 31.4 ng·h/mL, the “Cmax of hydromorphone released from the conjugate” value (“Cmax of hydromorphone released” for short) [1] is reported as 17.2 ng/mL and the “Tmax of hydromorphone released from the conjugate” value (“Tmax of hydromorphone released” for short) [1] is reported as 15 min. The “hydromorphone plasma concentrations compared to unconjugated hydromorphone” value [1, 6] was “lower at all time points”.

In the case of CN1CCC23c4c5ccc(O)c4OC2C(OC(=O)c2ccccc2O)=CCC3C1C5 (stereo not drawn) [6-o-Salicylate-HM, 6-o-salicylate-hydromorphone], the “AUC of hydromorphone released” value [1] is reported as 33.3 ng·h/mL, the “Cmax of hydromorphone released” value [1] is reported as 14.1 ng/mL and the “Tmax of hydromorphone released” value [1] is reported as 15 min. For the same molecule, the “Cmax value of released hydromorphone compared to unconjugated hydromorphone” value [1, 6] was “lower”.

In the case of CC(=O)Oc1ccccc1C(=O)Oc1ccc2c3c1OC1C(=O)CCC4C(C2)N(C)CCC314 (stereo not drawn) [Conjugate 3-Aspirin-HM, 3-aspirin-hydromorphone], the “AUC of hydromorphone released” value [1] is reported as 55.9 ng·h/mL, the “Cmax of hydromorphone released” value [1] is reported as 44.3 ng/mL and the “Tmax of hydromorphone released” value [1] is reported as 15 min. For the same molecule, the “hydromorphone plasma concentrations compared to unconjugated hydromorphone” value [1, 6] was “comparable”.

For CN1CCC23c4c5ccc(OC(=O)c6ccccc6)c4OC2C(OC(=O)c2ccccc2)=CCC3C1C5 (stereo not drawn) [3,6-di-Benzoate-HM, 3,6-di-benzoate-hydromorphone], the “AUC of hydromorphone released” value [1] was 30.1 ng·h/mL, the “Cmax of hydromorphone released” value [1] was 11.3 ng/mL and the “Tmax of hydromorphone released” value [1] was 15 min. For the same molecule, the “hydromorphone plasma concentrations compared to unconjugated hydromorphone” value [1, 6] was “lower at all time points”.

With CN1CCC23c4c5ccc(OC(=O)c6ccncc6)c4OC2C(=O)CCC3C1C5 (stereo not drawn) [3-Isoniacin-HM, 3-isoniacin-hydromorphone] the “AUC of hydromorphone released” value [1] was 25.1 ng·h/mL, the “Cmax of hydromorphone released” value [1] was 18.5 ng/mL and the “Tmax of hydromorphone released” value [1] was 15 min. For the same molecule, the “Cmax value of released hydromorphone compared to unconjugated hydromorphone” value [1, 6] was “lower”.

With CC(=O)Oc1ccccc1C(=O)OC1=CC[C@H]2[C@H]3Cc4ccc(OC(=O)c5ccccc5OC(C)=O)c5c4[C@@]2(CCN3C)[C@H]1O5 [3,6-di-Aspirin-HM, 3,6-di-aspirin-hydromorphone] the “AUC as % of unconjugated hydromorphone” value [2] was 17%, the “Cmax as % of unconjugated hydromorphone” value [2] was 20% and the “plasma concentrations of hydromorphone after intranasal administration compared to the parent drug” value ([2]; result in words) was “significantly reduced”. The “amount of hydromorphone released from 3,6-di-aspirin-HM” value (“amount of hydromorphone released” for short) ([3]; 1N HCl, ambient temperature, 30 min.) was 0%, the “amount of hydromorphone released” value ([3]; 1N HCl, ambient temperature, 60 min.) was 0% and the “amount of hydromorphone released” value ([3]; 1N NaOH, ambient temperature, 30 min.) was 1%. The “amount of hydromorphone released” value ([3]; 1N NaOH, ambient temperature, 60 min.) was 1%, the “amount of hydromorphone released” value ([3]; 4N NaOH, ambient temperature, 30 min.) was 1% and the “amount of hydromorphone released” value ([3]; 4N NaOH, ambient temperature, 60 min.) was 6%. The “amount of hydromorphone released” value ([3]; 5% Acetic acid, ambient temperature, 30 min.) was 0%, the “amount of hydromorphone released” value ([3]; 5% Acetic acid, ambient temperature, 60 min.) was 0% and the “amount of hydromorphone released” value ([3]; Glacial acetic acid, ambient temperature, 30 min.) was 0%. For the same molecule, the “amount of hydromorphone released” value ([3]; Glacial acetic acid, ambient temperature, 60 min.) was 0%, the “amount of hydromorphone released” value ([3]; Sat. NaHCO3, ambient temperature, 30 min.) was 0% and the “amount of hydromorphone released” value ([3]; Sat. NaHCO3, ambient temperature, 60 min.) was 0%. The “amount of hydromorphone released” value ([3]; Water, ambient temperature, 30 min.) was 0%, the “amount of hydromorphone released” value ([3]; Water, ambient temperature, 60 min.) was 0% and the “chemical stability under commonly applied "extraction methods"” value ([3]; result in words) was “chemically stable”. The “outcome of solvent extraction from formulation” value ([3]; result in words) was “only yielded inactive prodrug”, the “AUC as % of unconjugated hydromorphone” value [4] was 6% and the “Cmax as % of unconjugated hydromorphone” value [4] was 3%. For the same molecule, the “plasma concentrations of hydromorphone after intravenous administration compared to unconjugated hydromorphone” value ([4]; result in words) was “significantly lower”, the “reduction of GI transit compared to hydromorphone hydrochloride” value [5] was “reduces GI transit to a lesser extent than hydromorphone hydrochloride” and the “AUC of hydromorphone released” value [1] was 82.4 ng·h/mL. The “Cmax of hydromorphone released” value [1] was 36.5 ng/mL, the “Tmax of hydromorphone released” value [1] was 15 min and the “hydromorphone plasma concentrations compared to unconjugated hydromorphone” value [1, 6] was “comparable”.

In the case of CN1CCC23c4c5ccc(OC(=O)C=Cc6ccccc6)c4OC2C(=O)CCC3C1C5 (stereo not drawn) [3-Cinnamate-HM, 3-cinnamate-hydromorphone], the “AUC of hydromorphone released” value [1] is reported as 25.3 ng·h/mL, the “Cmax of hydromorphone released” value [1] is reported as 28.3 ng/mL and the “Tmax of hydromorphone released” value [1] is reported as 15 min. The “hydromorphone plasma concentrations compared to unconjugated hydromorphone” value [1, 6] was “lower at all time points”.

For CN1CCC23c4c5ccc(OC(=O)c6ccccc6)c4OC2C(=O)CCC3C1C5 (stereo not drawn) [3-Benzoate-HM, 3-benzoate-hydromorphone], the “AUC of hydromorphone released” value [1] was 41.2 ng·h/mL, the “Cmax of hydromorphone released” value [1] was 19.8 ng/mL and the “Tmax of hydromorphone released” value [1] was 30 min. For the same molecule, the “hydromorphone plasma concentrations compared to unconjugated hydromorphone” value [1, 6] was “lower at all time points”.

For CN1CC[C@]23c4c5ccc(OC(=O)c6ccccc6Nc6ccccc6)c4OC2C(=O)CC[C@H]3[C@H]1C5 (stereo partly drawn) [3-Fenamate-HM, 3-fenamate-hydromorphone], the “AUC of hydromorphone released” value [1] was 44.6 ng·h/mL, the “Cmax of hydromorphone released” value [1] was 30.6 ng/mL and the “Tmax of hydromorphone released” value [1] was 15 min. The “hydromorphone plasma concentrations compared to unconjugated hydromorphone” value [1, 6] was “elevated for the first hour after oral administration and then decreased quickly”.

In the case of COc1ccc2cc(C(C)C(=O)OC3=CCC4C5Cc6ccc(O)c7c6C4(CCN5C)C3O7)ccc2c1 (stereo not drawn) [6-Naproxen-HM, 6-naproxen-hydromorphone], the “AUC of hydromorphone released” value [1] is reported as 31.6 ng·h/mL, the “Cmax of hydromorphone released” value [1] is reported as 19.1 ng/mL and the “Tmax of hydromorphone released” value [1] is reported as 15 min. The “overall exposure after oral administration compared to the parent drug” value [1, 6] was “reduced significantly”.
